From paper PMC12075652, “ATP functions as a pathogen-associated molecular pattern to activate the E3 ubiquitin ligase RNF213” (Nature Communications, 2025)

How the values were obtained:
RNF213 [1] = molecular target: T1, RNF213 (Mus musculus, UniProt E9Q555); experiment: UBE2L3~Ub discharge assay; format: biochemical; settings: activator; 1 mM nucleotide, 0.025 μM E3, 20 μM E2~Ub
T1 construct: full-length recombinant protein, about 600 kDa, N-terminal Strep(II) tag in the pulldown construct

RNF213 (∆N338) [2] = molecular target: T2, RNF213 (∆N338) (Mus musculus, UniProt E9Q555); experiment: activation of RNF213 labelling by biotin UBE2L3~Ub activity-based probe, blot quantification; format: biochemical
T2 construct: N-terminal 338 residues deleted (∆N338), recombinant; biotin UBE2L3~Ub activity-based probe as read-out

[3] = molecular target: T3, RNF213-UBE2L3~Ub complex (RNF213-ABP) (Mus musculus, UniProt E9Q555); experiment: cryo-EM structure, […] Å; format: binding; settings: ADP modelled in AAA3 and AAA4; ATPγS-stimulated labelling reaction applied directly to grid
T3 construct: full-length murine RNF213 covalently linked at Cys4462 to human UBE2L3~Ub activity-based probe; ubiquitin and RZ domain not resolved; with Ubiquitin-conjugating enzyme E2 L3 (Homo sapiens); Ubiquitin (Homo sapiens)

RNF213 (∆N338) [4] = molecular target: T2, RNF213 (∆N338); experiment: antagonism of ATPγS-dependent activation, ABP labelling; format: biochemical; settings: 900 μM ADP against ATPγS titration; pH 7.5, 2.5 mM MgCl2, 30 °C
RNF213 [5] = molecular target: T4, RNF213 (Mus musculus, UniProt E9Q555, E2449Q/E2806Q); experiment: cryo-EM structure, […] Å; format: binding; settings: ATP modelled in AAA4, AAA3 empty; WB34 mutant
T4 construct: full-length recombinant protein, about 600 kDa, N-terminal Strep(II) tag in the pulldown construct

| Compound | UBE2L3~Ub discharge assay (RNF213 [1]) | EC50 (RNF213 (∆N338) [2]) | cryo-EM structure, 3.8 Å [3] | antagonism of ATPγS-dependent activation, ABP labelling (RNF213 (∆N338) [4]) | cryo-EM structure, 4.5 Å (RNF213 [5]) |
| --- | --- | --- | --- | --- | --- |
| Nc1ncnc2c1ncn2[C@@H]1O[C@H](COP(=O)(O)OP(=O)(O)OP(O)(O)=S)[C@@H](O)[C@H]1O [ATPγS] | (ATPγS) and adenylyl-imidodiphosphate (AMP-PNP) also stimulated E2~Ub discharge | 85 µM | – | – | – |
| Nc1ncnc2c1ncn2[C@@H]1O[C@H](COP(=O)(O)OP(=O)(O)NP(=O)(O)O)[C@@H](O)[C@H]1O [AMP-PNP] | (ATPγS) and adenylyl-imidodiphosphate (AMP-PNP) also stimulated E2~Ub discharge | – | – | – | – |
| Nc1ncnc2c1ncn2[C@@H]1O[C@H](COP(=O)(O)OP(=O)(O)O)[C@@H](O)[C@H]1O [ADP] | – | – | new density at the AAA3 and AAA4 sites allowed modeling of ADP | These data suggest that ADP inhibits ATP-dependent activation | – |
| Nc1ncnc2c1ncn2[C@@H]1O[C@H](COP(=O)(O)OP(=O)(O)OP(=O)(O)O)[C@@H](O)[C@H]1O [ATP] | E3 activity was enhanced by ATP, but not by ADP or AMP | – | – | – | Although ATP could be modeled into AAA4, AAA3 was empty |
